Structures can show the parent of a compound that is named as a salt.
Legend:
[1] = Ocular bioavailability following intravenous administration (Example 2); assay type: in vivo, New Zealand White rabbit; conditions: rabbit
Description: This study was designed to model the ocular bioavailability of mecamylamine when administered systemically. Rabbit eyes are the preferred model for in vivo modeling of ocular drugs, however, the rabbit is not the subject of choice for modeling oral bioavailability. However, systemic administration does emulate orally administered mecamylamine to a reasonable approximation since mecamylamine has rapid absorption and high oral bioavailability. Therefore, intravenous injection was used to model ocular bioavailability of mecamylamine administered systemically, in order to determine the deposition of mecamylamine to the plasma, vitreous and posterior tissues (retina/choroid) of the eye from the blood.
The study comprised 2 groups (each N=6, 12 rabbits total) of male NZW (New Zealand White) rabbits weighing approximately 2.5-3 kg and obtained from Kralek Farms (Turlock, Calif.). Mecamylamine solution, prepared as described in Example 1, at a dose of 15 mg/kg was delivered via i.v. infusion as either a short infusion (1 hr) or slow infusion (6 hr) in rabbits sedated by ketamine/xylazine, with the slow infusion intended to model controlled systemic release of the mecamylamine.
For both groups, samples of the vitreous(≧0.1 ml) and plasma were withdrawn at 6 time points: pre-dose, 30 min, 1, 2, 4, and 6 hr. At 6 hours, all animals were sacrificed and vitreous and retinal tissues were collected. The total amount of mecamylamine administered during each infusion was the same, based on the weight of the individual rabbit.
The concentrations of mecamylamine present in the various samples were analyzed as described in Example 6, below.

[2] = system: eyes of New Zealand White rabbits; assay: Pupil diameter, pupillary response and mortality observations after topical ocular instillation in rabbits (Example 10); conditions: rabbit, in vivo
Protocol: The objective of this study was to evaluate the ocular pharmacokinetics of a 2% Mecamylamine in a GELRITE solution up to 6 hours following topical instillation into the eyes of New Zealand White rabbits. Nine New Zealand White female rabbits of minimum age of 9 weeks and weight 2-3 kg were obtained from The Rabbit Source (Ramona, Calif.) were used in the study.
On day 1, 2 drops of 50 μL of mecamylamine or vehicle were administered topically into the appropriate eye(s) of each animal as described in Table 13. The time of each dose administration was recorded.

[3] = system: endothelial nAChRs; conditions: in vitro; endothelial cells; cited from earlier work
[4] = in vivo; conditions: rabbit, in vivo
Protocol: As used herein, the term “topically administered to a rabbit eye,” and cognates thereof, refers to the administration of a particular mecamylamine formulation, including formulations of pharmaceutically acceptable salts of mecamylamine, by applying 100 μL of the mecamylamine formulation to the cornea of each eye (2 drops of 50 μL each), wherein at the time of application the bottom eyelid is separated from the surface of the eye to make a pocket to ensure the entire dose is retained in contact with the eye. When the concentration of mecamylamine in plasma and in the retinal/choroidal tissue is to be measured in connection with the calculation of the ratio of the mecamylamine concentration in the retina/choroid versus the concentration of mecamylamine in plasma, the concentration of each is determined 1 hour after application of the formulation. The amount of mecamylamine present in plasma and the retina/choroid is determined by LC/MS/MS using internal standards of dextromethorphan and diphenhydramine and a standard of known concentration of mecamylamine. An exemplary method of administration of the topical formulation of mecamylamine is provided in Example 5. An exemplary LC/MS/MS method for determining the ratios described herein is given in detail in Example 6. When the mean maximum concentration of mecamylamine in plasma is to be determined, the concentration is again determined as described above and in Example 6. The term “mean maximum concentration of mecamylamine,” and its cognates, as used herein refers to the mean maximum concentration of mecamylamine measured in plasma when monitored over a 6 hour time period after administration of the formulation. When the mean total concentration of mecamylamine in plasma is to be determined, the concentration is again determined as described above and in Example 6. The term “total concentration of mecamylamine in plasma measured as the area under the curve,” (AUC) and cognates thereof, refers to summation of the areas under plot of the drug plasma versus time using a simple trapezoidal method with drug plasma time points taken to include 1, 3 and 6 hours after topical administration. Determination of AUC for corneal tissue, retinal/choroid tissue and aqueous humor is determined similarly. When the concentration of mecamylamine in plasma and in the corneal tissue is to be measured in connection with the calculation of the ratio of the mecamylamine concentration in the cornea (or aqueous humor) versus the concentration of mecamylamine in plasma, the concentration of each is determined 1 hour after application of 50 μl of the formulation. The amount of mecamylamine present in plasma and the cornea (or aqueous humor) is determined by LC/MS/MS using internal standards of dextromethorphan and diphenhydramine and a standard of known concentration of mecamylamine. An exemplary method of administration of the topical formulation of mecamylamine is provided in Example 5. An exemplary LC/MS/MS method for determining the ratios described herein is given in detail in Example 6.
A single dose of a polymer-free solution, gellan gum formulation and hypromellose formulation containing 3% mecamylamine hydrochloride, was instilled in the eyes of rabbits (Dutch-belted male rabbits (Convance, Denver, Pa.) minimum age 2 months and with weights of 1.6 to 1.8 kg). Two animals were euthanized 30 minutes, 1 hour or 3 hours after dosing.
Sample of blood and ocular tissue (obtained as described in previous examples) were analyzed for mecamylamine concentration using an LC MS/MS method up to 3 hours after dosing.
The area-under-the-curve (AUC) was calculated using a trapezoidal rule on a population pharmacokinetic basis (see Table 9).

CNC1(C)C2CCC(C2)C1(C)C (stereo not shown) [mecamylamine hydrochloride]
mean maximum concentration of mecamylamine in plasma ([1]; long i.v. infusion (FIG. 2)): greater than 500 ng/mL | mean maximum concentration of mecamylamine in plasma ([1]; short i.v. administration (FIG. 1)): > 1500 ng/mL | pupil diameter and pupil diameter response to light (mydriasis) [2]: did not result in significant changes in pupil diameter or pupil diameter response to light

CN1CCCC1c1cccnc1 (stereo not shown) [nicotine]
concentrations at which the maximal effect of nicotine occurs [3]: 10 to 100 nM

HPMC
Aqueous Humor AUC [4]: 7,355 ng/mL*hr | Cornea AUC [4]: 114000 ng·h/g | Plasma AUC [4]: 61 ng·h/mL | Ratio Aqu H:plasma (AUC) [4]: 120 | Ratio Cornea:Plasma (AUC) [4]: 1,868:1 | Ratio Retina/Choroid:Plasma (AUC) [4]: 291:1 | Retina/Choroid AUC [4]: 17800 ng·h/g | Mecamylamine AUC, Anterior sclera ([4]; topical or ocular): 32790 ng·h/g | Mecamylamine AUC, Aqueous humor ([4]; topical or ocular): 7355 ng·h/mL | Mecamylamine AUC, Conjunctiva ([4]; topical or ocular): 114398 ng·h/g | Mecamylamine AUC, Cornea ([4]; topical or ocular): 113938 ng·h/g | Mecamylamine AUC, Extraocular muscle ([4]; topical or ocular): 31236 ng·h/g | Mecamylamine AUC, Iris-ciliary body ([4]; topical or ocular): 114813 ng·h/g | Mecamylamine AUC, Lens ([4]; topical or ocular): 1064 ng·h/g | Mecamylamine AUC, Optic Nerve ([4]; topical or ocular): 11515 ng·h/g | Mecamylamine AUC, Posterior sclera ([4]; topical or ocular): 23638 ng·h/g | Mecamylamine AUC, Retina/Choroid ([4]; topical or ocular): 17804 ng·h/g | Mecamylamine AUC, Vitreous humor ([4]; topical or ocular): 335 ng·h/mL
